# US6362170B1, “Benzylglycosylamides as inhibitors of smooth muscle cell proliferation” (American Home Products Corporation, priority 1998, dated 2002)
# System: Porcine Smooth Muscle Cell
# Test: Effects of compounds on cell proliferation using 3H thymidine incorporation
# Type: cell-based
# Conditions: serum/growth factor stimulated cells; for IC50: 24-36 h incubation, read-out: Porcine Smooth Muscle Cell Antiproliferation IC50
# Experimental: Effects of Compounds on Cell Proliferation Using ^3H Thymidine Incorporation
# Human and porcine smooth muscle cells were tested in early passage (generally passage 3-7) at sub-confluent conditions. Cultures were grown in 16 mm (24 well) multi-well culture dishes in medium 199 supplemented with 10% fetal bovine serum and 2% antibiotic/antimycotic. At sub-confluence, the cells were placed in a defined serum free medium (AIM-V; Gibco) for 24-48 h prior to initiating the experimental protocol.
# Compounds were added to each well at 50 fold dilution (20 μL/well) and the plates were incubated for 24-36 h at 37° C. in 5% CO2. Compounds were initially dissolved in 50% ethanol and serially diluted into media. Compounds were routinely evaluated at concentrations from 1 to 100 μM. As a control, grade II porcine intestinal mucosal heparin (sodium salt) was routinely evaluated in all cell preparations at concentrations from 0.1 to 100 μg/mL.
# At the completion of the test procedure, plates were placed on ice, washed three times with ice cold phosphate buffered saline (PBS) and incubated in ice cold 10% trichloroacetic acid (TCA) got 30 min to remove acid soluble proteins. Solution was transferred to scintillation vials containing 0.4 N HCl (500 μL/vial to neutralize NaOH) and each well was rinsed two times with water (500 μL) for a total volume of 2 mL/vial.
# Data was obtained, in triplicate, for both control and experimental samples. Control (100%) data was obtained from maximally stimulated cells, as the result of growth factor or serum stimulation. Experimental data was obtained from cells maximally stimulated with growth factor or serum and treated with compound. Data are provided below in Table 1 as an IC50.
Compound,IC50,Porcine Smooth Muscle Cell Antiproliferation (% at 50 μM)
"CC(=O)OCC1OC(NC(=O)c2ccc(Cl)nc2)C(OC(C)=O)C(OC(C)=O)C1OC1OC(COC(C)=O)C(OC(C)=O)C(OC(C)=O)C1OC(C)=O [Example 1, 6-Chloro-N-(Hepta-O-acetyl-β-D-cellobiosyl)-3-pyridinecarboxamide]",3.55 µM,–
"O=C(NC1OC(CO)C(OC2OC3COC(c4ccccc4)OC3C(O)C2O)C(O)C1O)c1ccc(Cl)nc1 [Example 2, N-(4′,6′-O-benzylidene-β-D-cellobiosyl)-6-chloro-nicotinamide]",–,40% at 50 μM
COc1ccc(C(=O)NC2OC(COC(C)=O)C(OC3OC(COC(C)=O)C(OC(C)=O)C(OC(C)=O)C3OC(C)=O)C(OC(C)=O)C2OC(C)=O)c(OC)n1 (centres unmarked) [Example 4],3.11 µM,–
"CC(=O)OCC1OC(NC(=O)c2ccc(F)c(Cl)c2)C(OC(C)=O)C(OC(C)=O)C1OC1OC(COC(C)=O)C(OC(C)=O)C(OC(C)=O)C1OC(C)=O [Example 5, N-(hepta-O-acetyl-β-D-cellobiosyl)-3-chloro-4-fluoro-benzamide]",11.7 µM,–
"O=C(NC1OC(CO)C(OC2OC3COC(c4ccccc4)OC3C(O)C2O)C(O)C1O)c1ccc(F)cc1Cl [Example 6, N-(4′,6′-O-benzylidene-β-D-cellobiosyl)-2-chloro-4-flouro-benzamide]",–,5% at 50 μM
